Experiment [1] concerns HBsAg secretion in HepG2/2.2.15 WT cells (combined effect of PAPD5 and PAPD7 inhibition).
Procedure: The hepatocarcinoma HepG2/2.2.15 cell line (hereafter referred to as wild type) was obtained from Millipore (SCC249) and HepG2/2.2.15 PAPD5 knock-out (PAPD5 KO) and PAPD7 knock-out (PAPD7 KO) cells were generated using CRISPR/Cas9 technology.
An ELISA was performed using a hepatocarcinoma HepG2/2.2.15 wild type (WT) cell line to assess the potential of the compounds of the present invention as treatments of chronic HBV infection.
Cell seeding and addition of the compounds: On day −1, HepG2/2.2.15 cell lines were seeded in U-bottom 96-well plates (Fisher Scientific, 10777241) at a density of 1,5×10^4 cells/well in a final volume of 200 μL complemented DMEM/F12. On day 0, medium was aspirated and cells were washed once with PBS (300 μL/well). Then, PBS was replaced with complemented DMEM/F12 (200 μL/well). Using a Tecan-TE300e chemical dispenser, the compounds were added to the cells with 11 half-log incremental dilutions in dimethyl sulfoxide (DMSO) (Sigma-Aldrich, 276855) within the highest concentration equal to 25 μM (concentration range 1). DMSO was used as no-drug control, and the final DMSO concentration in all wells was 0.5%. […] On day 4, the 96-well plate was centrifuged for 5 min at 300 g to spin down cell debris. 100 μL/well of cell culture supernatant were collected and diluted 1:2 with 100 μL of complemented DMEM/F12 to perform the ELISA.
ELISA: Before starting, the “Hepatitis B surface antigen ELISA kit” (Abnova, KA0286) was equilibrated at room temperature (RT) for 1 h. […] The anti-HB plate was sealed using adhesive foil provided with the kit and incubated for 1 h at 37° C. […] After the last wash, the residual liquid was removed by turning the plate upside down and tapping on adsorbent paper. TMB substrate solutions A and B were mixed in equal volumes and 100 μL/well of this mixture were added to each well. The plate was covered with the supplied tray and incubated at RT for 20 min. During this time, a color develops in proportion to the amount of HBsAg bound to anti-HBs. After incubation, the reaction was stopped by adding 100 μL/well of 2N aqueous H2SO4 solution. The optical density of the developed color was read at 450 nm using a Cytation 5 instrument with reference wavelength at 620 nm.
CCK8 viability assay: Viability of HepG2/2.2.15 WT, PAPD5 KO and PAPD7 KO cell lines treated with the compounds was determined using the Cell Counting Kit-8 (CCK8, Sigma-Aldrich, 96992) following the manufacturer's instructions. […] During this time, WST-8 is reduced by dehydrogenases in cells to give a yellow-colored product (formazan), which is soluble in the tissue culture medium. The amount of the formazan dye generated by the activity of dehydrogenases in cells is directly proportional to the number of living cells. After 1 h incubation, the optical density of the developed color was read at 450 nm using a Cytation 5 instrument with the reference wavelength at 620 nm. CCK8 optical density values were used for normalization of the ELISA results.
To determine the IC50 values, the amount of HBsAg (optical density values of the ELISA) was corrected by the number of living cells (CCK8 optical density) per each well. Normalized HBsAg values were used to generate a dose-response curve with a non-linear regression model and applying the Levenberg-Marquardt algorithm. The percentage of inhibition was calculated relative to the untreated condition (DMSO CTRLs).
The next experiment concerns the target PAPD7 (Homo sapiens, UniProt Q5XG87). Description: HBsAg ELISA in HepG2/2.2.15 PAPD5 KO cells (PAPD7 inhibitory activity). The class given is cell-based. As to conditions: Table 3, HBsAg secretion, 4 days, read-out: pIC50 PAPD7 (PAPD5 KO cells) (converted).
Another experiment deals with PAPD5 (Homo sapiens, UniProt Q8NDF8). Description: cell-based. Details: endogenous in cells; host or cells: HepG2/2.2.15 PAPD7 knock-out cells (CRISPR/Cas9). As to conditions: for Fold sel. for PAPD5 over PAPD7: PAPD7 KO cells vs PAPD5 KO cells.
Where [2] appears, read: Table 3, HepG2/2.2.15 PAPD7 KO cells, HBsAg secretion, 4 days, read-out: pIC50 PAPD5 (PAPD7 KO cells) (converted).
[3] abbreviates: Table 5, PAPD7 KO cells, read-out: PIC50 PAPD5 (PAPD7 KO cells) (converted).

Read-outs that look alike come from different tables or passages of the source.

Sequence of PAPD5 (Q8NDF8 whole entry): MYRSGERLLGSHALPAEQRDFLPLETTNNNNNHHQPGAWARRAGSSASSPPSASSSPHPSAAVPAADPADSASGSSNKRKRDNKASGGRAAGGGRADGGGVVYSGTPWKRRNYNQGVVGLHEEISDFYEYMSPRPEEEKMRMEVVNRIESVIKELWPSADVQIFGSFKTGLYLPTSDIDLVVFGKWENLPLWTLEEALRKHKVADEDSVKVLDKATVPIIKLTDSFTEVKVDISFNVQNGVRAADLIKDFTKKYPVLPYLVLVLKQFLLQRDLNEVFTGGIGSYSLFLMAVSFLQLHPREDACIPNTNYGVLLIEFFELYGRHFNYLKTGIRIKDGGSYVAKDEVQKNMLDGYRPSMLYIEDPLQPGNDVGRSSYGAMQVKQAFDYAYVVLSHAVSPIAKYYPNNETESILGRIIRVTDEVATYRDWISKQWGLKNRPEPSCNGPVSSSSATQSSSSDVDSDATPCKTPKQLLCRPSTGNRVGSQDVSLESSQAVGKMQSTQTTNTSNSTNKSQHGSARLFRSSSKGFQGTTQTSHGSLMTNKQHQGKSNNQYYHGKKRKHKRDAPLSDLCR
Sequence of PAPD7 (Q5XG87 whole entry): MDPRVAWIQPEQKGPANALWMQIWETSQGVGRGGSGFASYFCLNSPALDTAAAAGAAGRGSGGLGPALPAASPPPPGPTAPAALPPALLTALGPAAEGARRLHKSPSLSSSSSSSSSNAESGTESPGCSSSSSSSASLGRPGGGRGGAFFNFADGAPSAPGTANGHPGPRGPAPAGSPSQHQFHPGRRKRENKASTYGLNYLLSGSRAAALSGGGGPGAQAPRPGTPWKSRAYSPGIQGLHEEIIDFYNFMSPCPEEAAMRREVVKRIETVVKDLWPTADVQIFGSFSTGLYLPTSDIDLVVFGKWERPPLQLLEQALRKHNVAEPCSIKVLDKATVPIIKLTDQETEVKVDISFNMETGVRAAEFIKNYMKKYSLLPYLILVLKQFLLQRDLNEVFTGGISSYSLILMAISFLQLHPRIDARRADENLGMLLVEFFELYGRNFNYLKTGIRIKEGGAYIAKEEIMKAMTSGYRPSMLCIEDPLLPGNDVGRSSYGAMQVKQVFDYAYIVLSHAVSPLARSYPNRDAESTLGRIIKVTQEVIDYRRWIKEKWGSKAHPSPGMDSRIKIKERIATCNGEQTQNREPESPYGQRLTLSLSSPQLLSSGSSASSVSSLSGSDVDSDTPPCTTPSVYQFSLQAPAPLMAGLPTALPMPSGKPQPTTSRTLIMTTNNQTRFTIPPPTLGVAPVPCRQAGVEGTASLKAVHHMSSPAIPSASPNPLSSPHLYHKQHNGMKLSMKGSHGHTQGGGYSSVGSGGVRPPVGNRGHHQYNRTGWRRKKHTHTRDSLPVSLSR

For the molecule `COCCCOc1cc2c(cc1OC)-c1c(cc(C(=O)O)c(=O)n1C1CC1)C(C(C)(C)C)O2` (racemic) [Example 802, (RS)-5-(tert-Butyl)-1-cyclopropyl-9-methoxy-8-(3-methoxypropoxy)-2-oxo-1,5-dihydro-2H-chromeno[4,3-b]pyridine-3-carboxylic acid, reference compound], the IC50 in experiment [1] is 1 nM.
For `COCCCOc1cc2c(nc1OC)-c1c(cc(C(=O)O)c(=O)n1CC(F)F)C(C(C)C)O2` (racemic) [Example 511, (RS)-10-(2,2-Difluoroethyl)-6-isopropyl-2-methoxy-3-(3-methoxypropoxy)-9-oxo-9,10-dihydro-6H-pyrano[3,2-b:4,5-b′]dipyridine-8-carboxylic acid], the IC50 was 5.01 nM on PAPD7, 0.794 nM on PAPD5 (setting [2]) and 1.26 nM in experiment [1]. Moreover, at PAPD5 (Table 3), the “Fold sel. for PAPD5 over PAPD7” value turned out to be 6.9 Fold.
As to `COCCCOc1cc2c(nc1OC)-c1[nH]c(=O)c(C(=O)O)cc1C1(CCCC1)O2` [Example 509, 2′-Methoxy-3′-(3-methoxypropoxy)-9′-oxo-9′,10′-dihydrospiro[cyclopentane-1,6′-pyrano[3,2-b:4,5-b′]dipyridine]-8′-carboxylic acid], the IC50 at PAPD7 is 316 nM; at PAPD5 (setting [2]), 31.6 nM; in experiment [1], 25.1 nM. The “Fold sel. for PAPD5 over PAPD7” value at PAPD5 (Table 3) is 10.4 Fold.
Consider `COCCCOc1cc2c(nc1OC)-c1c(cc(C(=O)O)c(=O)n1C)C(C(C)C)O2` (racemic) [Example 502, (RS)-6-Isopropyl-2-methoxy-3-(3-methoxypropoxy)-10-methyl-9-oxo-9,10-dihydro-6H-pyrano[3,2-b:4,5-b′]dipyridine-8-carboxylic acid], for which the values for the IC50 (on PAPD7; in experiment [1]) were 12.6 nM and 6.31 nM, respectively.
Consider `COCCCOc1cc2c(cc1OC)-c1[nH]c(=O)c(C(=O)O)cc1C(C(C)(C)C)O2` (racemic) [Example 801, (RS)-5-(tert-Butyl)-9-methoxy-8-(3-methoxypropoxy)-2-oxo-1,5-dihydro-2H-chromeno[4,3-b]pyridine-3-carboxylic acid, reference compound], for which the IC50 was 50.1 nM on PAPD5 (setting [3]) and 39.8 nM in experiment [1].
Regarding `CCn1c2c(cc(C(=O)O)c1=O)C(C(C)C)Oc1cc(OCCCOC)c(OC)nc1-2` (racemic) [Example 503, (RS)-10-Ethyl-6-isopropyl-2-methoxy-3-(3-methoxypropoxy)-9-oxo-9,10-dihydro-6H-pyrano[3,2-b:4,5-b′]dipyridine-8-carboxylic acid], the IC50 at PAPD7 is 5.01 nM; at PAPD5 (setting [2]), 1 nM; in experiment [1], 1.26 nM. The “Fold sel. for PAPD5 over PAPD7” value at PAPD5 (Table 3) is listed as 5.9 Fold.
`COCCCOc1cc2c(nc1OC)-c1c(cc(C(=O)O)c(=O)n1C1CC1)C(C(C)C)O2` (racemic) [Example 504, (RS)-10-Cyclopropyl-6-isopropyl-2-methoxy-3-(3-methoxypropoxy)-9-oxo-9,10-dihydro-6H-pyrano[3,2-b:4,5-b′]dipyridine-8-carboxylic acid]: the IC50 at PAPD7 was 2.51 nM; at PAPD5 (setting [2]), 0.631 nM; in experiment [1] it was 0.501 nM. The “Fold sel. for PAPD5 over PAPD7” value at PAPD5 (Table 3) is on record as 4.8 Fold.
`COCCCOc1cc2c(nc1OC)-c1c(cc(C(=O)O)c(=O)n1C1CC1)C(C(C)(C)C)C2` (racemic) [Example 702, (RS)-5-(tert-Butyl)-1-cyclopropyl-9-methoxy-8-(3-methoxypropoxy)-2-oxo-1,2,5,6-tetrahydro-1,10-phenanthroline-3-carboxylic acid, reference compound]: the IC50 on PAPD5 (setting [3]) was 3.16 nM; in experiment [1], 2.51 nM.
For the molecule `COCCCOc1cc2c(nc1OC)-c1c(cc(C(=O)O)c(=O)n1CCO)C(C(C)C)O2` (racemic) [Example 510, (RS)-10-(2-Hydroxyethyl)-6-isopropyl-2-methoxy-3-(3-methoxypropoxy)-9-oxo-9,10-dihydro-6H-pyrano[3,2-b:4,5-b′]dipyridine-8-carboxylic acid], the IC50 on PAPD7 was 31.6 nM; on PAPD5 (setting [2]), 5.01 nM; in experiment [1] it was 15.8 nM. Also, the “Fold sel. for PAPD5 over PAPD7” value on PAPD5 (Table 3) turned out to be 6.4 Fold.

Source of the values: US11964986B1, “9-oxo-9,10-dihydro-6H-pyrano[3,2-b:4,5-b′]dipyridine-8-carboxylic acid derivatives” (REJUVERON TELOMERE THERAPEUTICS AG, priority 2023, dated 2024).
